# Results from patent US20250282799A1, “SUBSTITUTED PYRIDO[4,3-d]PYRIMIDINES AS KRAS MODULATORS” (Alterome Therapeutics, Inc., priority 2023, published 2025).
# Tested on: KRAS G12V dependent lung adenocarcinoma cell line, NCI-H441
# Assay: Cellular pERK (Thr202/Tyr204) FRET/HTRF assay
# Format: cell-based
# Conditions: Homo sapiens, NCI-H441, cellular pERK (Thr202/Tyr204) HTRF, NCI-H441 cells
# How it was run: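 NCI-H441, overnight plating → cpd 1 hr, 37 °C/5% CO2; DMSO neg ctrl. Lyse (phosphatase inhibitors), add donor/acceptor Abs, RT incubation, HTRF read. IC50 by curve fit.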
row,SMILES,IC50 [nM]
1,"C#Cc1c(F)ccc2cccc(-c3ncc4c(N5CCOC[C@H]6[C@H](F)[C@H]65)nc(OC[C@]56C/C(=C\F)CN5CCC65CC5)nc4c3F)c12 [Example 375, (1S,7S,8S)-2-(7-(8-Ethynyl-7-fluoronaphthalen-1-yl)-8-fluoro-2-(((R,E)-6′-(fluoromethylene)tetrahydrospiro[cyclopropane-1,1′-pyrrolizin]-7a′(5′H)-yl)methoxy)pyrido[4,3-d]pyrimidin-4-yl)-8-fluoro-5-oxa-2-azabicyclo[5.1.0]octane]",< 50
2,"C=C1CN2CCC[C@@]2(COc2nc(N3CCCC[C@@H]4[C@@H](F)[C@@H]43)c3cnc(-c4cc(N)c(F)c(C)c4C(F)(F)F)c(F)c3n2)C1 [Example 393, 2-fluoro-5-(8-fluoro-4-((1R,7S,8R)-8-fluoro-2-azabicyclo[5.1.0]octan-2-yl)-2-(((S)-2-methylenetetrahydro-1H-pyrrolizin-7a(5H)-yl)methoxy)pyrido[4,3-d]pyrimidin-7-yl)-3-methyl-4-(trifluoromethyl)aniline]",500 to 10000
3,"[2H]C([2H])([2H])Oc1c(F)c(F)c(F)c2cc(N)cc(-c3ncc4c(N5CCOC[C@H]6[C@H](F)[C@H]65)nc(OC[C@@]56CCCN5C/C(=C\F)C6)nc4c3F)c12 [Example 133, 6,7,8-trifluoro-4-(8-fluoro-4-((1S,7S,8S)-8-fluoro-5-oxa-2-azabicyclo[5.1.0]octan-2-yl)-2-(((S,Z)-2-(fluoromethylene)tetrahydro-1H-pyrrolizin-7a(5H)-yl)methoxy)pyrido[4,3-d]pyrimidin-7-yl)-5-(methoxy-d3)naphthalen-2-amine]",< 50
4,"[2H]C([2H])(Oc1nc(N2CCOC[C@H]3[C@H](Cl)[C@H]32)c2cnc(-c3cc(N)cc4cccc(C#C)c34)c(F)c2n1)[C@@]12CCCN1[C@H](C)[C@H](F)C2 [Example 348, 4-(4-((1S,7S,8S)-8-chloro-5-oxa-2-azabicyclo[5.1.0]octan-2-yl)-8-fluoro-2-(((2R,3R,7aS)-2-fluoro-3-methyltetrahydro-1H-pyrrolizin-7a(5H)-yl)methoxy-d2)pyrido[4,3-d]pyrimidin-7-yl)-5-ethynylnaphthalen-2-amine]",< 50
5,"[2H]C([2H])(F)Oc1c(F)ccc2cc(N)cc(-c3ncc4c(N5CCOC[C@H]6[C@H](F)[C@H]65)nc(OC[C@@]56CCCN5C[C@@H](C)C6)nc4c3F)c12 (single isomer, unassigned) [Example 214]",< 50
6,"C#Cc1cccc2cc(N)cc(-c3ncc4c(N5CCOC[C@@H]6[C@@H](Cl)[C@@H]65)nc(OC[C@@H]5CCCN5C)nc4c3F)c12 [Example 327, 4-(4-((1R,7R,8R)-8-chloro-5-oxa-2-azabicyclo[5.1.0]octan-2-yl)-8-fluoro-2-(((S)-1-methylpyrrolidin-2-yl)methoxy)pyrido[4,3-d]pyrimidin-7-yl)-5-ethynylnaphthalen-2-amine]",50 to 500
7,"C#Cc1cccc2cc(O)cc(-c3ncc4c(N5CCOC[C@H]6[C@H](F)[C@H]65)nc(OC[C@@H]5CCCN5C)nc4c3F)c12 [Example 295, 5-ethynyl-4-(8-fluoro-4-((1S,7S,8S)-8-fluoro-5-oxa-2-azabicyclo[5.1.0]octan-2-yl)-2-(((S)-1-methylpyrrolidin-2-yl)methoxy)pyrido[4,3-d]pyrimidin-7-yl)naphthalen-2-ol]",< 50
8,"[2H]C([2H])(Oc1nc(N2CCC=C[C@@H]3[C@@H](F)[C@@H]32)c2cnc(-c3cc(N)cc4cc(F)c(F)c(C#C)c34)c(F)c2n1)[C@@]12CCCN1C[C@H](F)C2 [Example 99, 5-ethynyl-6,7-difluoro-4-(8-fluoro-4-((1R,7S,8R)-8-fluoro-2-azabicyclo[5.1.0]oct-5-en-2-yl)-2-(((2R,7aS)-2-fluorotetrahydro-1H-pyrrolizin-7a(5H)-yl)methoxy-d2)pyrido[4,3-d]pyrimidin-7-yl)naphthalen-2-amine]",< 50
9,"C#Cc1c(F)ccc2cc(N)cc(-c3ncc4c(N5CCOC[C@H]6[C@H](F)[C@H]65)nc(OC[C@@]56CC[C@@H](C)N5C[C@H](F)C6)nc4c3F)c12 [Example 287, 5-Ethynyl-6-fluoro-4-(8-fluoro-2-(((2R,5R,7aS)-2-fluoro-5-methyltetrahydro-1H-pyrrolizin-7a(5H)-yl)methoxy)-4-((1S,7S,8S)-8-fluoro-5-oxa-2-azabicyclo[5.1.0]octan-2-yl)pyrido[4,3-d]pyrimidin-7-yl)naphthalen-2-amine]",< 50
10,"C#Cc1c(C(F)(F)F)ccc2cccc(-c3ncc4c(N5CCOC[C@H]6[C@H](F)[C@H]65)nc(OC[C@]56C[C@@H](F)CN5C[C@@H](CN)C6)nc4c3F)c12 [Example 336, ((2R,6R,7aS)-7a-(((7-(8-ethynyl-7-(trifluoromethyl)naphthalen-1-yl)-8-fluoro-4-((1S,7S,8S)-8-fluoro-5-oxa-2-azabicyclo[5.1.0]octan-2-yl)pyrido[4,3-d]pyrimidin-2-yl)oxy)methyl)-6-fluorohexahydro-1H-pyrrolizin-2-yl)methanamine]",500 to 10000

# More lines, now with the values ahead:
row,IC50 [nM],SMILES
1,500 to 10000,"[2H]C([2H])(F)Oc1c(F)ccc2cncc(-c3ncc4c(N5CCOC[C@H]6[C@H](F)[C@H]65)nc(OC([2H])([2H])[C@@]56CCCN5C[C@H](F)C6)nc4c3F)c12 [Example 127, (1S,7S,8S)-8-Fluoro-2-(8-fluoro-7-(6-fluoro-5-(fluoromethoxy-d2)isoquinolin-4-yl)-2-(((2R,7aS)-2-fluorotetrahydro-1H-pyrrolizin-7a(5H)-yl)methoxy-d2)pyrido[4,3-d]pyrimidin-4-yl)-5-oxa-2-azabicyclo[5.1.0]octane]"
2,50 to 500,"[2H]C([2H])(Oc1nc(N2CCOC[C@H]3[C@H](F)[C@H]32)c2cc(F)c(-c3nc(N)cc(C)c3C(F)(F)F)c(F)c2n1)[C@@]12CCCN1C[C@H](F)C2 [Example 175, 6-(6,8-difluoro-4-((1S,7S,8S)-8-fluoro-5-oxa-2-azabicyclo[5.1.0]octan-2-yl)-2-(((2R,7aS)-2-fluorotetrahydro-1H-pyrrolizin-7a(5H)-yl)methoxy-d2)quinazolin-7-yl)-4-methyl-5-(trifluoromethyl)pyridin-2-amine]"
3,< 50,"[2H]C([2H])(Oc1nc(N2CCOC[C@H]3[C@H](F)[C@H]32)c2c(OC(C)C)nc(-c3cc(N)cc4ccc(F)c(C#C)c34)c(F)c2n1)[C@@]12CCCN1C[C@H](F)C2 [Example 323, 5-ethynyl-6-fluoro-4-(8-fluoro-4-((1S,7S,8S)-8-fluoro-5-oxa-2-azabicyclo[5.1.0]octan-2-yl)-2-(((2R,7aS)-2-fluorotetrahydro-1H-pyrrolizin-7a(5H)-yl)methoxy-d2)-5-isopropoxypyrido[4,3-d]pyrimidin-7-yl)naphthalen-2-amine]"
4,< 50,"[2H]C([2H])(Oc1nc(N2CCOC[C@H]3[C@H](F)[C@H]32)c2cc(Cl)c(-c3nc(N)cc(C)c3C(F)(F)F)c(F)c2n1)[C@@]12CCCN1C[C@H](F)C2 [Example 159, 6-(6-Chloro-8-fluoro-4-((1S,7S,8S)-8-fluoro-5-oxa-2-azabicyclo[5.1.0]octan-2-yl)-2-(((2R,7aS)-2-fluorotetrahydro-1H-pyrrolizin-7a(5H)-yl)methoxy-d2)quinazolin-7-yl)-4-methyl-5-(trifluoromethyl)pyridin-2-amine]"
5,< 50,"[2H]C([2H])(Oc1nc(N2CCOC[C@H]3[C@H](F)[C@H]32)c2cc(C#N)c(-c3cc(N)cc4ccc(F)c(C#C)c34)c(C)c2n1)[C@@]12CCCN1C[C@H](F)C2 [Example 422, 7-(3-amino-8-ethynyl-7-fluoronaphthalen-1-yl)-4-((1S,7S,8S)-8-fluoro-5-oxa-2-azabicyclo[5.1.0]octan-2-yl)-2-(((2R,7aS)-2-fluorotetrahydro-1H-pyrrolizin-7a(5H)-yl)methoxy-d2)-8-methylquinazoline-6-carbonitrile]"
6,500 to 10000,"[2H]C([2H])(Oc1nc(N2CCOC[C@H]3[C@H](F)[C@H]32)c2cc(Cl)c(-c3cc(N)cc(C4CC4)c3C(F)(F)F)c(F)c2n1)[C@@]12CCCN1C[C@H](F)C2 [Example 183, 3-(6-chloro-8-fluoro-4-((1S,7S,8S)-8-fluoro-5-oxa-2-azabicyclo[5.1.0]octan-2-yl)-2-(((2R,7aS)-2-fluorotetrahydro-1H-pyrrolizin-7a(5H)-yl)methoxy-d2)quinazolin-7-yl)-5-cyclopropyl-4-(trifluoromethyl)aniline]"
7,< 50,"[2H]C([2H])(Oc1nc(N2CCOC[C@@H]3[C@H]2[C@@]3([2H])F)c2cnc(-c3cccc4cc(F)c(F)c(C#C)c34)c(F)c2n1)[C@@]12CCCN1C[C@H](F)C2 [Example 122, (1S,7S,8S)-2-(7-(8-ethynyl-6,7-difluoronaphthalen-1-yl)-8-fluoro-2-(((2R,7aS)-2-fluorotetrahydro-1H-pyrrolizin-7a(5H)-yl)methoxy-d2)pyrido[4,3-d]pyrimidin-4-yl)-8-fluoro-5-oxa-2-azabicyclo[5.1.0]octane-8-d]"
8,50 to 500,"[2H]C([2H])(Oc1nc(N2CCOC[C@@H]3[C@@H](F)[C@@H]32)c2cc(Cl)c(-c3nc(N)cc(C)c3C(F)(F)F)c(F)c2n1)[C@@]12CCCN1C[C@H](F)C2 [Example 160, 6-(6-chloro-8-fluoro-4-((1R,7R,8R)-8-fluoro-5-oxa-2-azabicyclo[5.1.0]octan-2-yl)-2-(((2R,7aS)-2-fluorotetrahydro-1H-pyrrolizin-7a(5H)-yl)methoxy-d2)quinazolin-7-yl)-4-methyl-5-(trifluoromethyl)pyridin-2-amine]"

# Same assay, conditions: Homo sapiens, NCI-H441, cellular pERK HTRF, NCI-H441 (KRAS G12V) cells
row,IC50 [nM],SMILES
1,< 50,"[2H]C([2H])(Oc1nc(N2CCOC[C@H]3[C@H](Cl)[C@H]32)c2cnc(-c3cc(O)cc4ccc(F)c(C#C)c34)c(F)c2n1)[C@@]12CCCN1[C@H](C)[C@H](F)C2 [Example 475, 4-(4-((1S,7S,8S)-8-chloro-5-oxa-2-azabicyclo[5.1.0]octan-2-yl)-8-fluoro-2-(((2R,3R,7aS)-2-fluoro-3-methyltetrahydro-1H-pyrrolizin-7a(5H)-yl)methoxy-d2)pyrido[4,3-d]pyrimidin-7-yl)-5-ethynyl-6-fluoronaphthalen-2-ol]"
